One series has as its target Procathepsin L (Homo sapiens, UniProt P07711). Nature of the series: Inhibition of human recombinant cathepsin-L using Z-Phe-Arg-AMC as substrate preincubated for 15 mins measured after 1 hr by QFRET assay.
The target of a further series is T1, Cathepsin K (Homo sapiens, UniProt P43235).
T1 sequence (P43235 whole entry): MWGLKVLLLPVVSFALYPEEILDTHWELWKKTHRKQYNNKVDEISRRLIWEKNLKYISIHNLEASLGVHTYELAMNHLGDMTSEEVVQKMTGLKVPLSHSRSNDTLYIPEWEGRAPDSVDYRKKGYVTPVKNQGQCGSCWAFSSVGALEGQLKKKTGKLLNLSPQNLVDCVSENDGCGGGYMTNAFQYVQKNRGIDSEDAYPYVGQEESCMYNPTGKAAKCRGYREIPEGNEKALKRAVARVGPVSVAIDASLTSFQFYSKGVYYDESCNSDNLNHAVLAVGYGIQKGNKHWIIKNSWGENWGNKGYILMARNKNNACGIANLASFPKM
Nature of the series: Inhibition of human recombinant cathepsin-k using Z-Phe-Arg-AMC as substrate preincubated for 15 mins measured after 1 hr by QFRET assay.

The next series is described as follows: physchem. To be noted: buffer, pH 7.4.
Series [1] can be described thus: Metabolic stability of the compound in rat liver microsomes assessed as compound turnover after 120 mins.
Series [2] can be described thus: in vivo. The following applies: Alderley Park Han Wistar, rat, plasma, iv, 2 mg/kg.
A further series addresses Cathepsin B (Homo sapiens, UniProt P07858). The experiment in a line: Inhibition of human recombinant cathepsin-B using Z-Arg-Arg-AMC as substrate preincubated for 15 mins measured after 1 hr by QFRET assay.
Series [3] can be described thus: Percentage unbound in human plasma. The format is ADME, cell-free.
Series [4] can be described thus: Metabolic stability of the compound in human liver microsomes assessed as compound turnover after 120 mins.
Series [5] in a line: in vitro. To be noted: human, hepatocytes.
Series [6] can be described thus: Aqueous solubility of the compound in at pH 7.4. To be noted: buffer.
The nature of series [7]: Percentage unbound in rat plasma. The format is ADME, cell-free.
The nature of series [8]: Volume of distribution at steady state in Alderley Park Han Wistar rat at 2 mg/kg, iv and 2 mg/kg, po. The format is ADME, organism-based. The following applies: in vivo, read-out: Vdss.
The target in another series is Cathepsin S (Homo sapiens, UniProt P25774). Nature of the series: Inhibition of human recombinant cathepsin-S using Z-Val-Val-Arg-AMC as substrate preincubated for 15 mins measured after 1 hr by QFRET assay.
Series [9] can be described thus: Oral bioavailability in Alderley Park Han Wistar rat at 2 mg/kg. The format is ADME, organism-based. The following applies: in vivo.
Series [10] in a line: in vitro. The following applies: rat, hepatocytes.
Series [11] is described as follows: in vivo. The following applies: beagle, dog, plasma, iv, 1 mg/kg.
For another series, the species on record is Homo sapiens. Nature of the series: Selectivity ratio of IC50 for human recombinant cathepsin-K to IC50 for human recombinant cathepsin-B.
Series [12] in a line: Oral bioavailability in Beagle dog at 1 mg/kg. The format is ADME, organism-based, Canis lupus familiaris. To be noted: in vivo.
The nature of series [13]: Inhibition of osteoclastogenesis in human bone marrow-derived stem cells assessed as reduction of pit formation by measuring TRACP5b activity after 7 days by bone TRAP assay. The format is functional. The following applies: 168 h.
Series [14] can be described thus: Volume of distribution at steady state in rat. The following applies: in vivo, read-out: Vdss. The format is ADME, organism-based.
A short description of series [15]: Clearance in rat. The format is ADME, organism-based. The following applies: in vivo.
The nature of series [16]: Oral bioavailability in rat. The format is ADME, organism-based. The following applies: in vivo.
The next series concerns the target Cytochrome P450 3A4 (Homo sapiens, UniProt P08684). Nature of the series: Inhibition of CYP3A4. The format is ADME.
Series [17] is described as follows: Percentage unbound in dog plasma. The format is ADME, cell-free, Canis lupus familiaris.
Series [18] can be described thus: Volume of distribution at steady state in Beagle dog at 1 mg/kg, iv and 1 mg/kg, po. The format is ADME, organism-based, Canis lupus familiaris. To be noted: in vivo, read-out: Vdss.

≈ marks a conversion by molar mass, not a printed value. Where only a bound is given, the exact number is not on record here.

Data on eight compounds can be found in ChEMBL document CHEMBL2169826, “Pharmacokinetic benefits of 3,4-dimethoxy substitution of a phenyl ring and design of isosteres yielding orally available cathepsin K inhibitors” (J Med Chem, 2012).

Procathepsin L, sequence (P07711 whole entry): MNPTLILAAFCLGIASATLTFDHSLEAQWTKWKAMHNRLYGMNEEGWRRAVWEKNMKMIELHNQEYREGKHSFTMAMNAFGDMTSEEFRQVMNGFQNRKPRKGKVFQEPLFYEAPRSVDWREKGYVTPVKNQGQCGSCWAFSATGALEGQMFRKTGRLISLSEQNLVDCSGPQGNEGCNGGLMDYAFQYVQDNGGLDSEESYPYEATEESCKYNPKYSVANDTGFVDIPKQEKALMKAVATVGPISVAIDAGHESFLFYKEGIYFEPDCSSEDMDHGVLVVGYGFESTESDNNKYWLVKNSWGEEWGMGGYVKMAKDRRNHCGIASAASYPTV
Cathepsin S, sequence (P25774 whole entry): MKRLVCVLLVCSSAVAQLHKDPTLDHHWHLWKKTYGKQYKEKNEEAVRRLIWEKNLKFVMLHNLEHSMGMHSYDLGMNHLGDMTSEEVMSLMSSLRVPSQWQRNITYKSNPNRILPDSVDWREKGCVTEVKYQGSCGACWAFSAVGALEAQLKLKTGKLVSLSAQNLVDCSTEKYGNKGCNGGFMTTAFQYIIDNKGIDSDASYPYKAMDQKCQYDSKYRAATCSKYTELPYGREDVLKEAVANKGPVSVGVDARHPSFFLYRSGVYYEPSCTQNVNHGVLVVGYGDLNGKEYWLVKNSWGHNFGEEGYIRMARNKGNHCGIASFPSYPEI
Cytochrome P450 3A4, sequence (P08684 whole entry): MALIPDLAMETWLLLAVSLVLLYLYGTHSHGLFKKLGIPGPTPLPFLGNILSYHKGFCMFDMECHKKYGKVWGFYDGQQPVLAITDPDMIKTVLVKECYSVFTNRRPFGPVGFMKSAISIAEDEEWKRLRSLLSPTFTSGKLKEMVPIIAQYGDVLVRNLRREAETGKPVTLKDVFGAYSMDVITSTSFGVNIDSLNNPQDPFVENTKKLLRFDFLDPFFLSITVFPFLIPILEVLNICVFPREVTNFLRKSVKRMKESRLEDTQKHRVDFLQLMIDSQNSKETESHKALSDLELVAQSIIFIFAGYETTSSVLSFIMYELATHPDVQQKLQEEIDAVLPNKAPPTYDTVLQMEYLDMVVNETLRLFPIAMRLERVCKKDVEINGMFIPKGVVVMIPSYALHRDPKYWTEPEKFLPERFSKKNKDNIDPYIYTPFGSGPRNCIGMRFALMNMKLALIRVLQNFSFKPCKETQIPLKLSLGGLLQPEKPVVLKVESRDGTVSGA

`Cc1nn(C)c2cc(N3CCN(C(=O)[C@@H]4CCCC[C@H]4C(=O)NC4(C#N)CC4)[C@H](C)C3)ccc12`: the IC50 at Procathepsin L is > 10 µM; at Cathepsin K, 0.008 µM; on Cathepsin B, 0.766 µM; at Cathepsin S, 1.25 µM. The same compound had a pH-dependent lipophilicity (logD) in “physchem” of 2.7. The intrinsic metabolic clearance (microsomal CLint) at 2 h in series [1] came to 15 µL/min/mg; in [4] it was 8.8 µL/min/mg. The same compound showed a clearance in “in vivo [2]” of 1.14 L/h/kg. Further, the fraction unbound in [3] came to 0.28; in series [7] it was 0.3. Moreover, the values for the hepatocyte CLint in the series “in vitro [5]” and in “in vitro [10]” were 4.7 µL/min/1e6 cells and 4.6 µL/min/1e6 cells, respectively. Also, the solubility in series [6] was > 1100 µM. Moreover, in [8], the Vd was 2.5 L/kg. For the same compound, the bioavailability in series [9] was 87%.

On to `COc1ccc(N2CCN(C(=O)[C@@H]3CCCC[C@H]3C(=O)NC3(C#N)CC3)CC2)cc1OC`, for which the IC50 on Procathepsin L was > 10 µM; on Cathepsin K it was 0.009 µM; on Cathepsin B it was 3.06 µM; on Cathepsin S it was 2.29 µM; in [13], 0.126 µM. The compound also had a logD in “physchem” of 1.4. Also, the figures for the microsomal CLint at 2 h in series [1] and in series [4] were < 7.4 µL/min/mg and 2.3 µL/min/mg, respectively. For the same compound, the clearance stood at 1.74 L/h/kg in the series “in vivo [2]” and 0.72 L/h/kg in “in vivo [11]”. Also, in [3], the unbound share (fraction unbound) was determined as 0.45. The Ratio IC50 in the series listed under Homo sapiens amounted to 340. Also, the solubility in series [6] is > 2500 µM. Further, the values for the bioavailability in [12] and in series [9] were 79% and 41%, respectively.

For the compound `COc1ccc(N2CCN(C(=O)[C@@H]3CCCC[C@H]3C(=O)NCC#N)CC2)cc1OC`, the 50% inhibitory concentration (IC50) is > 10 µM at Procathepsin L, 0.006 µM at Cathepsin K, 1.27 µM on Cathepsin B and 1.09 µM at Cathepsin S. The intrinsic metabolic clearance (microsomal CLint) at 2 h stood at 6.8 µL/min/mg in series [1] and 2.2 µL/min/mg in [4]. Besides, the Ratio IC50 in the series filed under Homo sapiens was 211.

As to `COc1cccc2c3c([nH]c12)CCN(C(=O)[C@@H]1CCCC[C@H]1C(=O)NC1(C#N)CC1)C3`, in series [13], the half-maximal inhibitory concentration (IC50) was determined as 0.032 µM.

For the compound `Cc1noc2cc(N3CCN(C(=O)[C@@H]4CCCC[C@H]4C(=O)NC4(C#N)CC4)[C@H](C)C3)ccc12`, the half-maximal inhibitory concentration (IC50) is > 10 µM at Procathepsin L, 0.016 µM on Cathepsin K, 0.603 µM on Cathepsin B and 0.807 µM on Cathepsin S. In addition, in the series “physchem”, the logD worked out at 2.7. In addition, the clearance in the series “in vivo [2]” worked out at 1.74 L/h/kg. Besides, the figures for the fraction unbound in [3] and in series [7] were 0.2 and 0.14, respectively. The microsomal CLint at 2 h in series [4] was determined as 9.3 µL/min/mg. Besides, the intrinsic clearance (hepatocyte CLint) in the series “in vitro [5]” came to 30 µL/min/1e6 cells; in the series “in vitro [10]”, 9.4 µL/min/1e6 cells. The solubility in series [6] turned out to be 600 µM (≈ 270 µg/mL). For the same compound, the Vd in series [8] came out at 2.1 L/kg. Further, the bioavailability in series [9] was 21%.

With `N#CC1(NC(=O)[C@@H]2CCCC[C@H]2C(=O)N2CCN(c3ccc(F)cc3)CC2)CC1`, the Vd in [14] and in [8] was 1.3 L/kg in each case. Also, in series [1], the intrinsic metabolic clearance (microsomal CLint) at 2 h was found to be 35 µL/min/mg. Moreover, the clearance (in the series “in vivo [2]”; in [15]) was 2.16 L/h/kg in each case. For the same compound, the fraction unbound in series [3] was > 0.5; in series [7] it was > 0.53. The bioavailability in [16] and in [9] was 0% each time.

Regarding `COc1cc(N2CCN(C(=O)[C@@H]3CCCC[C@H]3C(=O)NC3(C#N)CC3)[C@H](C)C2)ccc1C1CC1`, the concentration for half-maximal inhibition (IC50) was > 10 µM on Procathepsin L, 0.003 µM at Cathepsin K, 1.14 µM on Cathepsin B and 1.37 µM on Cathepsin S. The log distribution coefficient (logD) in the series “physchem” was 3.5. The microsomal CLint at 2 h was found to be 33 µL/min/mg in [1] and 9 µL/min/mg in series [4]. In “in vivo [2]”, the clearance is 2.34 L/h/kg. The compound further had an INH at Cytochrome P450 3A4 of 1.6 µM. For the same compound, the unbound share (fraction unbound) was 0.081 in series [3] and 0.072 in series [7]. Further, the hepatocyte CLint in “in vitro [5]” turned out to be 25 µL/min/1e6 cells; in “in vitro [10]”, 13 µL/min/1e6 cells. The concentration in solution in series [6] (solubility) was 200 µM (≈ 92.9 µg/mL). For the same compound, in [8], the Vd stood at 2.8 L/kg. The compound further came in with a bioavailability in series [9] of 57%.

`COc1ccc(N2CCN(C(=O)[C@@H]3CCCC[C@H]3C(=O)NC3(C#N)CC3)[C@H](C)C2)cc1OC`: the half-maximal inhibitory concentration (IC50) is > 10 µM at Procathepsin L; 0.004 µM on Cathepsin K; 1.85 µM on Cathepsin B; 1.45 µM on Cathepsin S; 0.04 µM in series [13]. The compound also returned a pH-dependent lipophilicity (logD) in “physchem” of 1.9. For the same compound, the values for the fraction unbound in series [3], in series [7] and in [17] were 0.39, 0.53 and 0.39, respectively. Moreover, the solubility in series [6] was > 2400 µM. Besides, the bioavailability in series [12] turned out to be 71%; in [9], 46%. Further, the Vd in series [8] was 1.2 L/kg; in [18] it was 0.8 L/kg.
